Laboratory results: publication PMC10835127, “Viruses traverse the human proteome through peptide interfaces that can be biomimetically leveraged for drug discovery” (Proceedings of the National Academy of Sciences of the …, 2024)
Like-named read-outs stand apart in the source and are kept apart here.

Tests used:
HCV replicon = assay type: cell-based; details: normalized mean of HCV replicon readout
[1] = test system: F. novicida (strain U112); assay type: cell-based
EBV = details: normalized mean of EBV replication readout
influenza A H1N1 virus = details: 48 hr post-treatment, A549
HIV1 strain NL4-3 = assay type: cell-based; details: normalized mean of HIV1 replication readout

Row | Substance | HCV Norm MEAN (HCV replicon) | Francisella novicida Norm AUC [1] | EBV Norm MEAN (EBV) | Neuraminidase activity normalized to vehicle (influenza A H1N1 virus; 200 µM peptide) | Neuraminidase activity normalized to vehicle (influenza A H1N1 virus; 0,823 µM peptide) | Neuraminidase activity normalized to vehicle (influenza A H1N1 virus; 22,2 µM peptide) | Neuraminidase activity normalized to vehicle (influenza A H1N1 virus; 2,4691 µM peptide) | Neuraminidase activity normalized to vehicle (influenza A H1N1 virus; 7,4074 µM peptide) | Neuraminidase activity normalized to vehicle (influenza A H1N1 virus; 66,6667 µM peptide) | HIV1 Norm MEAN (HIV1 strain NL4-3) | HCV Norm MEAN (HCV replicon; peptide screen) | EBV Norm MEAN (EBV; peptide screen) | HIV1 Norm MEAN (HIV1 strain NL4-3; peptide screen)
1 | GARASVLS [CPEP108] | 0.178 | 1.458 | 0.7452 | 0,7289 | 0,7112 | 0,9027 | 0,8479 | 0,9625 | 0,8429 | 0.3412 | – | – | –
2 | GGKWSKLS [CPEP134] | 0.2388 | 1.142 | 0.3842 | 0,426 | 0,9416 | 0,8116 | 0,8887 | 0,9196 | 0,7036 | 1.139 | – | – | –
3 | GGLEPLSEKHFRETEV [CPEP112] | – | 1.082 | – | 1,0677 | 1,0673 | 1,1545 | 1,0388 | 1,1047 | 1,0264 | – | 0.3447 | 0.8103 | 0.2121
4 | GHRMAWDMMMNWSP [CPEP107] | – | 0.9779 | – | 0,108 | 0,7424 | 0,9099 | 0,9047 | 0,8224 | 0,2891 | – | 0.9584 | 0.9961 | 1.4249
5 | GPSDSGAGRAAEDRKCL [CPEP137] | – | 1.181 | – | 1,0777 | 1,0904 | 1,189 | 0,9326 | 1,1347 | 1,0155 | – | 0.6634 | 1.2267 | 0.7725
6 | GRPPLPPKQK [CPEP41] | 0.9259 | 0.9976 | 0.7591 | 0,8561 | 1,0727 | 0,912 | 0,9209 | 0,9892 | 0,8347 | 0.6258 | – | – | –
7 | HFEPPTLHELYDLDVTAP [CPEP115] | – | 1.086 | – | 1,0337 | 1,141 | 1,1784 | 1,0495 | 1,1676 | 1,1762 | – | 0.5064 | 0.5144 | 1.21
8 | HGCPL [CPEP33] | 0.1691 | 0.6368 | 1.339 | 0,999 | 0,7063 | 0,8914 | 0,8619 | 0,7735 | 1,0094 | 0.2429 | – | – | –
9 | HVKNG [CPEP123] | 0.1965 | 0.9754 | 1.599 | 0,78 | 0,7776 | 0,8404 | 0,7299 | 0,7535 | 0,9273 | 1.079 | – | – | –
10 | IHTHARFLIT [CPEP139] | 0.5677 | 1.233 | 1.5606 | 0,8832 | 1,1262 | 0,9135 | 1,0704 | 1,0144 | 0,8125 | 2.216 | – | – | –
11 | IKQEDIKP [CPEP109] | 0.2159 | 0.9859 | 0.5875 | 0,7052 | 0,9055 | 0,889 | 0,8881 | 0,975 | 0,8029 | 0.5534 | – | – | –
12 | IQIGNHNAM [CPEP67] | 0.7713 | 0.7313 | 1.399 | 0,0404 | 0,9632 | 0,5849 | 0,8279 | 0,768 | 0,4017 | 4.672 | – | – | –
13 | ISNLPYTIKYKIFEQQ [CPEP120] | – | 0.5785 | – | 1,0456 | 1,0562 | 1,193 | 0,9901 | 1,0754 | 1,0268 | – | 0.3919 | 1.211 | 3.21
14 | IVISDSEEE [CPEP121] | 0.7416 | 1.126 | 1.138 | 1,0697 | 1,0507 | 1,0096 | 1,0097 | 0,9639 | 1,0552 | 0.9208 | – | – | –
15 | KKTKSLP [CPEP75] | 0.2042 | 1.06 | 0.414 | 0,6614 | 0,8942 | 0,8062 | 0,8135 | 0,8547 | 0,7577 | 0.7985 | – | – | –
16 | KLVTELAENS [CPEP129] | 0.8005 | 0.9413 | 1.255 | 0,8014 | 1,1002 | 0,8882 | 1,0838 | 0,9983 | 0,7782 | 0.8117 | – | – | –
